Experimental data reported in PubChem BioAssay AID2060626 (Molecular Pharmacology Branch, DTP, NCI, 2025).

System: 168753-222-R-J1-PDC complex spheroid viability
Test: Anticancer human tumor 168753-222-R-J1-PDC patient-derived bladder carcinoma cell line growth inhibition [CLK]
Conditions: curve of first compound; second compound 0.0316 µM
Text: A high-throughput screen of multi-cell type tumor spheroids was designed to identify active combinations of […] and targeted small molecules. Complex spheroids include a stromal component modeled by human endothelial cells (HUVEC) and fibroblasts modeled by human mesenchymal stem cells (MSCs). The concentration ranges selected for each drug and investigational agent were based upon clinically achievable concentrations if the clinical Cmax of the agent was known.
Compounds. The drugs and investigational agents: cirtuvivint (SM08502; NSC835563), CC-671 (NSC850746), vemurafenib (NSC761431), tapotoclax (NSC804041), sotorasib (NSC818433), adagrasib (NSC831453), MRTX-1133 (NSC836407), BAY2416964 (NSC825713), copanlisib (NSC816437), inavolisib (NSC800729), abemaciclib (NSC768073), osimertinib (NSC779217), entinostat (NSC756642), eltanexor (KPT-8602, NSC794443), venetoclax (NSC766270), ceralasertib (NSC777638), bortezomib (NSC756655), olaparib (NSC753686), talazoparib (NSC767125), alisertib (NSC759677), peposertib (NSC802822), gemcitabine (NSC613327), 5-fluorouracil (NSC19893), SN-38 (NSC673596), oxaliplatin (NSC266046), paclitaxel (NSC125973), and doxorubicin (NSC123127), were obtained from the National Cancer Institute (NCI) Developmental Therapeutics Program Chemical Repository. The FDA-approved anticancer drug set is available from the Developmental Therapeutics Program at https://dtp.cancer.gov/organization/dscb/obtaining/available plates.htm. […] The stock solutions were prepared in dimethyl sulfoxide (DMSO, Sigma-Aldrich, St. Louis, MO, cat. D2650), except for the platinum complexes which were prepared in saline (Quality Biological, Gaithersburg, MD, cat. 114-055-101), at 800-fold the tested concentration and stored at -70 degrees C prior to their use. All drugs and investigational agents were tested over a range starting from a high concentration at or near the clinical Cmax and decreasing in half-log increments. If the clinical Cmax for an agent had not been determined, the highest concentration tested was 10 microM.
Cell Culture. All cells were maintained in an incubator at 37 degrees C and 5% CO2 with 95% humidity. The PDC lines were cultured according to standard operating procedures established by the NCI PDMR. Briefly, all PDCs were thawed and cultured in Matrigel-coated flasks prepared with a working solution of 1X Ham's F-12 nutrient mix, without supplementation (Invitrogen, Waltham, MA, cat. 11765054), 100 U/mL penicillin-streptomycin (Invitrogen, cat. 15140122), and 2.5% Matrigel (Corning Inc., Corning, NY, cat. 354248) for the first three passages. The 947758-054-R-J2-PDC line was cultured in 6B/Colon 1A media, which includes advanced DMEM/F-12 (Thermo Fisher Scientific, cat. 12634028), 10 mM HEPES (Thermo Fisher Scientific, cat. 15630080), 1X GlutaMAX supplement (Thermo Fisher Scientific, cat. 35050061), 0.1 mg/mL primocin (InvivoGen, cat. ant-pm-2), 10% defined fetal bovine serum, heat inactivated (HyClone Laboratories Inc., cat. SH30070.03HI), 1.25 mM N-Acetyl-L-cysteine (Sigma-Aldrich, cat. A9165), 10 mM nicotinamide (Sigma-Aldrich, cat. N0636), 1X B-27 supplement (Thermo Fisher Scientific, cat. 17504044), 1X N-2 supplement (Thermo Fisher Scientific, cat. 17502048), and 10 microM Y-27632 dihydrochloride (Tocris Bioscience, cat. 1254). The 876862-298-R-J1-PDC was cultured in 6E media, which includes all 6B/Colon 1A media components plus 50% L-WRN conditioned media (ATCC, cat. CRL-3276), 50 ng/mL recombinant human EGF recombinant protein (hEGF; Thermo Fisher Scientific, cat. PHG0311), 10 ng/mL recombinant human fibroblast growth factor 10 (hGFG-10; PeproTech, cat. 100-26), 1 ng/mL recombinant human fibroblast growth factor 2 (hFGF-2; PeproTech, cat. 100-18B), and 1 µM prostaglandin E2 (PGE2; Tocris, cat. 2296). The 227483-062-R1-J1-PDC line was cultured in Panc media, containing all 6E components except hFGF-2, with the addition of 500 nM SB-431542 (Selleckchem, cat. S1067) and 10 nM gastrin (Tocris, cat. 3006). […]
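Further: viability measured after seven days of drug exposure.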
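Wherever viability, T/C is given: luminescence signal used as surrogate for viable cell amount; 100% = DMSO vehicle control wells.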

| SMILES | IC50 |
| --- | --- |
| C#Cc1c(F)ccc2cc(O)cc(-c3ncc4c(N5CC6CCC(C5)N6)nc(OCC56CCCN5CC(F)C6)nc4c3F)c12 (stereo unspecified) + CN1CCN(c2cc(C(=O)Nc3cc4cc(-c5cnn(C)c5)ccc4cn3)ccn2)CC1 | > 10000 nM |
| C=C(F)C(=O)N1CCN(c2nc(OCC3CCCN3C)nc3c2CCN(c2cccc4cccc(Cl)c24)C3)CC1CC#N (stereo unspecified) + CN1CCN(c2cc(C(=O)Nc3cc4cc(-c5cnn(C)c5)ccc4cn3)ccn2)CC1 | 3260 nM |
| CC(CO)NC(=O)c1cc(-c2ccc(Cl)cc2)nn(-c2cnn(C)c2)c1=O (stereo unspecified) + CN1CCN(c2cc(C(=O)Nc3cc4cc(-c5cnn(C)c5)ccc4cn3)ccn2)CC1 | > 10000 nM |

Same assay, conditions: curve of first compound; second compound 0.1 µM

| SMILES | IC50 |
| --- | --- |
| C#Cc1c(F)ccc2cc(O)cc(-c3ncc4c(N5CC6CCC(C5)N6)nc(OCC56CCCN5CC(F)C6)nc4c3F)c12 (stereo unspecified) + CN1CCN(c2cc(C(=O)Nc3cc4cc(-c5cnn(C)c5)ccc4cn3)ccn2)CC1 | 1850 nM |
| C=C(F)C(=O)N1CCN(c2nc(OCC3CCCN3C)nc3c2CCN(c2cccc4cccc(Cl)c24)C3)CC1CC#N (stereo unspecified) + CN1CCN(c2cc(C(=O)Nc3cc4cc(-c5cnn(C)c5)ccc4cn3)ccn2)CC1 | 1230 nM |
| CC(CO)NC(=O)c1cc(-c2ccc(Cl)cc2)nn(-c2cnn(C)c2)c1=O (stereo unspecified) + CN1CCN(c2cc(C(=O)Nc3cc4cc(-c5cnn(C)c5)ccc4cn3)ccn2)CC1 | 5220 nM |

Same assay, conditions: curve of first compound; second compound 0.316 µM

| SMILES | IC50 |
| --- | --- |
| C#Cc1c(F)ccc2cc(O)cc(-c3ncc4c(N5CC6CCC(C5)N6)nc(OCC56CCCN5CC(F)C6)nc4c3F)c12 (stereo unspecified) + CN1CCN(c2cc(C(=O)Nc3cc4cc(-c5cnn(C)c5)ccc4cn3)ccn2)CC1 | < 31.6 nM |
| C=C(F)C(=O)N1CCN(c2nc(OCC3CCCN3C)nc3c2CCN(c2cccc4cccc(Cl)c24)C3)CC1CC#N (stereo unspecified) + CN1CCN(c2cc(C(=O)Nc3cc4cc(-c5cnn(C)c5)ccc4cn3)ccn2)CC1 | < 31.6 nM |
| CC(CO)NC(=O)c1cc(-c2ccc(Cl)cc2)nn(-c2cnn(C)c2)c1=O (stereo unspecified) + CN1CCN(c2cc(C(=O)Nc3cc4cc(-c5cnn(C)c5)ccc4cn3)ccn2)CC1 | < 31.6 nM |

Same assay, conditions: curve of first compound; second compound 1 µM

| SMILES | IC50 |
| --- | --- |
| C#Cc1c(F)ccc2cc(O)cc(-c3ncc4c(N5CC6CCC(C5)N6)nc(OCC56CCCN5CC(F)C6)nc4c3F)c12 (stereo unspecified) + CN1CCN(c2cc(C(=O)Nc3cc4cc(-c5cnn(C)c5)ccc4cn3)ccn2)CC1 | < 31.6 nM |
| C=C(F)C(=O)N1CCN(c2nc(OCC3CCCN3C)nc3c2CCN(c2cccc4cccc(Cl)c24)C3)CC1CC#N (stereo unspecified) + CN1CCN(c2cc(C(=O)Nc3cc4cc(-c5cnn(C)c5)ccc4cn3)ccn2)CC1 | < 31.6 nM |
| CC(CO)NC(=O)c1cc(-c2ccc(Cl)cc2)nn(-c2cnn(C)c2)c1=O (stereo unspecified) + CN1CCN(c2cc(C(=O)Nc3cc4cc(-c5cnn(C)c5)ccc4cn3)ccn2)CC1 | < 31.6 nM |

Same assay, conditions: curve of first compound; second compound 3.16 µM

| SMILES | IC50 |
| --- | --- |
| C#Cc1c(F)ccc2cc(O)cc(-c3ncc4c(N5CC6CCC(C5)N6)nc(OCC56CCCN5CC(F)C6)nc4c3F)c12 (stereo unspecified) + CN1CCN(c2cc(C(=O)Nc3cc4cc(-c5cnn(C)c5)ccc4cn3)ccn2)CC1 | < 31.6 nM |
| C=C(F)C(=O)N1CCN(c2nc(OCC3CCCN3C)nc3c2CCN(c2cccc4cccc(Cl)c24)C3)CC1CC#N (stereo unspecified) + CN1CCN(c2cc(C(=O)Nc3cc4cc(-c5cnn(C)c5)ccc4cn3)ccn2)CC1 | < 31.6 nM |
| CC(CO)NC(=O)c1cc(-c2ccc(Cl)cc2)nn(-c2cnn(C)c2)c1=O (stereo unspecified) + CN1CCN(c2cc(C(=O)Nc3cc4cc(-c5cnn(C)c5)ccc4cn3)ccn2)CC1 | < 31.6 nM |

Same assay, conditions: curve of first compound; second compound 10 µM

| SMILES | IC50 |
| --- | --- |
| C#Cc1c(F)ccc2cc(O)cc(-c3ncc4c(N5CC6CCC(C5)N6)nc(OCC56CCCN5CC(F)C6)nc4c3F)c12 (stereo unspecified) + CN1CCN(c2cc(C(=O)Nc3cc4cc(-c5cnn(C)c5)ccc4cn3)ccn2)CC1 | < 31.6 nM |
| C=C(F)C(=O)N1CCN(c2nc(OCC3CCCN3C)nc3c2CCN(c2cccc4cccc(Cl)c24)C3)CC1CC#N (stereo unspecified) + CN1CCN(c2cc(C(=O)Nc3cc4cc(-c5cnn(C)c5)ccc4cn3)ccn2)CC1 | < 31.6 nM |
| CC(CO)NC(=O)c1cc(-c2ccc(Cl)cc2)nn(-c2cnn(C)c2)c1=O (stereo unspecified) + CN1CCN(c2cc(C(=O)Nc3cc4cc(-c5cnn(C)c5)ccc4cn3)ccn2)CC1 | < 31.6 nM |

Same assay, conditions: second compound 0.0316 µM; first compound 0.0316 µM; stronger effect = lower value

| SMILES | viability, T/C |
| --- | --- |
| C#Cc1c(F)ccc2cc(O)cc(-c3ncc4c(N5CC6CCC(C5)N6)nc(OCC56CCCN5CC(F)C6)nc4c3F)c12 (stereo unspecified) + CN1CCN(c2cc(C(=O)Nc3cc4cc(-c5cnn(C)c5)ccc4cn3)ccn2)CC1 | 105% |
| C=C(F)C(=O)N1CCN(c2nc(OCC3CCCN3C)nc3c2CCN(c2cccc4cccc(Cl)c24)C3)CC1CC#N (stereo unspecified) + CN1CCN(c2cc(C(=O)Nc3cc4cc(-c5cnn(C)c5)ccc4cn3)ccn2)CC1 | 89.1% |
| CC(CO)NC(=O)c1cc(-c2ccc(Cl)cc2)nn(-c2cnn(C)c2)c1=O (stereo unspecified) + CN1CCN(c2cc(C(=O)Nc3cc4cc(-c5cnn(C)c5)ccc4cn3)ccn2)CC1 | 98.7% |

Same assay, conditions: second compound 0.0316 µM; first compound 0.1 µM; stronger effect = lower value

| SMILES | viability, T/C |
| --- | --- |
| C#Cc1c(F)ccc2cc(O)cc(-c3ncc4c(N5CC6CCC(C5)N6)nc(OCC56CCCN5CC(F)C6)nc4c3F)c12 (stereo unspecified) + CN1CCN(c2cc(C(=O)Nc3cc4cc(-c5cnn(C)c5)ccc4cn3)ccn2)CC1 | 107% |
| C=C(F)C(=O)N1CCN(c2nc(OCC3CCCN3C)nc3c2CCN(c2cccc4cccc(Cl)c24)C3)CC1CC#N (stereo unspecified) + CN1CCN(c2cc(C(=O)Nc3cc4cc(-c5cnn(C)c5)ccc4cn3)ccn2)CC1 | 111% |
| CC(CO)NC(=O)c1cc(-c2ccc(Cl)cc2)nn(-c2cnn(C)c2)c1=O (stereo unspecified) + CN1CCN(c2cc(C(=O)Nc3cc4cc(-c5cnn(C)c5)ccc4cn3)ccn2)CC1 | 130% |

Same assay, conditions: second compound 0.0316 µM; first compound 0.316 µM; stronger effect = lower value

| SMILES | viability, T/C |
| --- | --- |
| C#Cc1c(F)ccc2cc(O)cc(-c3ncc4c(N5CC6CCC(C5)N6)nc(OCC56CCCN5CC(F)C6)nc4c3F)c12 (stereo unspecified) + CN1CCN(c2cc(C(=O)Nc3cc4cc(-c5cnn(C)c5)ccc4cn3)ccn2)CC1 | 101% |
| C=C(F)C(=O)N1CCN(c2nc(OCC3CCCN3C)nc3c2CCN(c2cccc4cccc(Cl)c24)C3)CC1CC#N (stereo unspecified) + CN1CCN(c2cc(C(=O)Nc3cc4cc(-c5cnn(C)c5)ccc4cn3)ccn2)CC1 | 85.8% |
| CC(CO)NC(=O)c1cc(-c2ccc(Cl)cc2)nn(-c2cnn(C)c2)c1=O (stereo unspecified) + CN1CCN(c2cc(C(=O)Nc3cc4cc(-c5cnn(C)c5)ccc4cn3)ccn2)CC1 | 64% |

Same assay, conditions: second compound 0.0316 µM; first compound 1 µM; stronger effect = lower value

| SMILES | viability, T/C |
| --- | --- |
| C#Cc1c(F)ccc2cc(O)cc(-c3ncc4c(N5CC6CCC(C5)N6)nc(OCC56CCCN5CC(F)C6)nc4c3F)c12 (stereo unspecified) + CN1CCN(c2cc(C(=O)Nc3cc4cc(-c5cnn(C)c5)ccc4cn3)ccn2)CC1 | 103% |
| C=C(F)C(=O)N1CCN(c2nc(OCC3CCCN3C)nc3c2CCN(c2cccc4cccc(Cl)c24)C3)CC1CC#N (stereo unspecified) + CN1CCN(c2cc(C(=O)Nc3cc4cc(-c5cnn(C)c5)ccc4cn3)ccn2)CC1 | 101% |
| CC(CO)NC(=O)c1cc(-c2ccc(Cl)cc2)nn(-c2cnn(C)c2)c1=O (stereo unspecified) + CN1CCN(c2cc(C(=O)Nc3cc4cc(-c5cnn(C)c5)ccc4cn3)ccn2)CC1 | 112% |

Same assay, conditions: second compound 0.0316 µM; first compound 3.16 µM; stronger effect = lower value

| SMILES | viability, T/C |
| --- | --- |
| C#Cc1c(F)ccc2cc(O)cc(-c3ncc4c(N5CC6CCC(C5)N6)nc(OCC56CCCN5CC(F)C6)nc4c3F)c12 (stereo unspecified) + CN1CCN(c2cc(C(=O)Nc3cc4cc(-c5cnn(C)c5)ccc4cn3)ccn2)CC1 | 96.4% |
